The source of these data is BindingDB's records for doi:10.1021/jm970338c (University of Grenoble, 1998).

This test concerns the target Beta-2 adrenergic receptor (Rattus norvegicus) (UniProt P10608). Nature of the test: Inhibition of beta-2 adrenergic receptor isolated from rat lung homogenates.

Sequence of Beta-2 adrenergic receptor (Rattus norvegicus) (P10608 whole entry, looked up): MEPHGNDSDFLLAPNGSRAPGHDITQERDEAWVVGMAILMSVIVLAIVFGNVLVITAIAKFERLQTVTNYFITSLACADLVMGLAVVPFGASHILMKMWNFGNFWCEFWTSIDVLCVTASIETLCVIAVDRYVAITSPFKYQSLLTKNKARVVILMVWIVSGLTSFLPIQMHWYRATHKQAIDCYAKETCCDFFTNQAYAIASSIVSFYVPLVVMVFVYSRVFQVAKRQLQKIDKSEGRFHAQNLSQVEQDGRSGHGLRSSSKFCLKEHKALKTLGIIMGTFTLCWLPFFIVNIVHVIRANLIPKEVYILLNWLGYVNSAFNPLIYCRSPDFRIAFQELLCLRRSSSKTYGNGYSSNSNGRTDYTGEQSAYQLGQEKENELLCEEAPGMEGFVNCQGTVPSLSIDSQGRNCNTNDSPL

With `Cc1ccc(NCC(O)CON=C(C2CC2)C2CC2)nc1` (stereo unspecified) [Dicyclopropyl-methanone O-[2-hydroxy-3-(5-methyl-pyridin-2-ylamino)-propyl]-oxime], the IC50 (as a rule, the concentration at which inhibition is half-maximal) was above 10 µM. For `CC(C)(Cc1ccc(NCC(O)CON=C(C2CC2)C2CC2)cc1)NCC(O)CON=C(C1CC1)C1CC1` (stereo unspecified) [Dicyclopropyl-methanone O-(3-{2-[4-(3-dicyclopropylmethyleneaminooxy-2-hydroxy-propylamino)-phenyl]-1,1-dimethyl-ethylamino}-2-hydroxy-propyl)-oxime], it took 1.5 µM to reach half-maximal inhibition (IC50). For the compound `CN(CC(O)CON=C(C1CC1)C1CC1)c1ccccc1` (stereo unspecified) [Dicyclopropyl-methanone O-[2-hydroxy-3-(methyl-phenyl-amino)-propyl]-oxime], the IC50 was above 10 µM. To `OC(CNc1nc2ccccc2[nH]1)CON=C(C1CC1)C1CC1` (stereo unspecified) [Dicyclopropyl-methanone O-[3-(1H-benzoimidazol-2-ylamino)-2-hydroxy-propyl]-oxime] belongs above 10 µM; to `OC(CNc1ccc(Cl)cc1)CON=C(C1CC1)C1CC1` (stereo unspecified) [Dicyclopropyl-methanone O-[3-(4-chloro-phenylamino)-2-hydroxy-propyl]-oxime], above 10 µM. To `O=C(O)c1ccc(NCC(O)CON=C(C2CC2)C2CC2)cc1` (stereo unspecified) [4-(3-Dicyclopropylmethyleneaminooxy-2-hydroxy-propylamino)-benzoic acid] belongs above 10 µM.

Compound `OC(CNc1ccccc1-c1ccccc1)CON=C(C1CC1)C1CC1` (stereo unspecified) [Dicyclopropyl-methanone O-[3-(biphenyl-2-ylamino)-2-hydroxy-propyl]-oxime] yielded an IC50 above 10 µM. The value for `OC(CNc1ccccc1I)CON=C(C1CC1)C1CC1` (stereo unspecified) [Dicyclopropyl-methanone O-[2-hydroxy-3-(2-iodo-phenylamino)-propyl]-oxime] was above 10 µM. To `OC(CNc1ccc(I)cc1)CON=C(C1CC1)C1CC1` (stereo unspecified) [Dicyclopropyl-methanone O-[2-hydroxy-3-(4-iodo-phenylamino)-propyl]-oxime] belongs above 10 µM; to `OC(CNc1ccc(F)cc1)CON=C(C1CC1)C1CC1` (stereo unspecified) [Dicyclopropyl-methanone O-[3-(4-fluoro-phenylamino)-2-hydroxy-propyl]-oxime], above 10 µM. As to `Cc1ccc(NCC(O)CON=C(C2CC2)C2CC2)cc1` (stereo unspecified) [Dicyclopropyl-methanone O-(2-hydroxy-3-p-tolylamino-propyl)-oxime], the IC50 is above 10 µM.

`OC(CNc1ccc(C(F)(F)F)cc1)CON=C(C1CC1)C1CC1` (stereo unspecified) [Dicyclopropyl-methanone O-[2-hydroxy-3-(4-trifluoromethyl-phenylamino)-propyl]-oxime] came in with an IC50 above 10 µM. For `CC(C)(N)Cc1ccc(NCC(O)CON=C(C2CC2)C2CC2)cc1` (stereo unspecified) [Dicyclopropyl-methanone O-{3-[4-(2-amino-2-methyl-propyl)-phenylamino]-2-hydroxy-propyl}-oxime], the IC50 is above 10 µM. To `Cc1cccc(NCC(O)CON=C(C2CC2)C2CC2)n1` (stereo unspecified) [Dicyclopropyl-methanone O-[2-hydroxy-3-(6-methyl-pyridin-2-ylamino)-propyl]-oxime] belongs above 10 µM. The value for `O=[N+]([O-])c1ccc(NCC(O)CO[N-][C+](C2CC2)C2CC2)cc1` (stereo unspecified) [Dicyclopropyl-methanone O-[2-hydroxy-3-(4-nitro-phenylamino)-propyl]-oxime] was above 10 µM. The compound `Cc1ccnc(NCC(O)CON=C(C2CC2)C2CC2)c1` (stereo unspecified) [Dicyclopropyl-methanone O-[2-hydroxy-3-(4-methyl-pyridin-2-ylamino)-propyl]-oxime] returned an IC50 above 10 µM. The value for `CC(C)(C)c1ccc(NCC(O)CON=C(C2CC2)C2CC2)cc1` (stereo unspecified) [Dicyclopropyl-methanone O-[3-(4-tert-butyl-phenylamino)-2-hydroxy-propyl]-oxime] was above 10 µM; that for `Cc1cccc(NCC(O)CON=C(C2CC2)C2CC2)c1` (stereo unspecified) [Dicyclopropyl-methanone O-(2-hydroxy-3-m-tolylamino-propyl)-oxime] was above 10 µM. To `OC(CNc1ccc(Br)cc1)CON=C(C1CC1)C1CC1` (stereo unspecified) [Dicyclopropyl-methanone O-[3-(4-bromo-phenylamino)-2-hydroxy-propyl]-oxime] belongs above 10 µM; to `CC(C)(Cc1ccc(N)cc1)NCC(O)CON=C(C1CC1)C1CC1` (stereo unspecified) [Dicyclopropyl-methanone O-{3-[2-(4-amino-phenyl)-1,1-dimethyl-ethylamino]-2-hydroxy-propyl}-oxime], 2 µM; to `Oc1ccc(NCC(O)CON=C(C2CC2)C2CC2)cc1` (stereo unspecified) [Dicyclopropyl-methanone O-[2-hydroxy-3-(4-hydroxy-phenylamino)-propyl]-oxime], above 10 µM. The value for `Cc1ccccc1NCC(O)CON=C(C1CC1)C1CC1` (stereo unspecified) [Dicyclopropyl-methanone O-(2-hydroxy-3-o-tolylamino-propyl)-oxime] was above 10 µM; that for `OC(CNc1ccccn1)CON=C(C1CC1)C1CC1` (stereo unspecified) [Dicyclopropyl-methanone O-[2-hydroxy-3-(pyridin-2-ylamino)-propyl]-oxime] was above 10 µM.

Take `OC(CNc1ccncc1)CON=C(C1CC1)C1CC1` (stereo unspecified) [Dicyclopropyl-methanone O-[2-hydroxy-3-(pyridin-4-ylamino)-propyl]-oxime]: the IC50 was above 10 µM. In turn, `OC(CNc1nc2ccccc2s1)CON=C(C1CC1)C1CC1` (stereo unspecified) [Dicyclopropyl-methanone O-[3-(benzothiazol-2-ylamino)-2-hydroxy-propyl]-oxime] came in with an IC50 above 10 µM.

`CC(C)(Cc1ccc(NCC(O)CO[N-][C+](C2CC2)C2CC2)cc1)[N+](=O)[O-]` (stereo unspecified) [Dicyclopropyl-methanone O-{2-hydroxy-3-[4-(2-methyl-2-nitro-propyl)-phenylamino]-propyl}-oxime] showed an IC50 above 10 µM. To `OC(CNc1ccccc1)CON=C(C1CC1)C1CC1` (stereo unspecified) [Dicyclopropylmethanone O-(3-anilino-2-hydroxypropyl)oxime] belongs above 10 µM; to `OC(CNc1cccc(I)c1)CON=C(C1CC1)C1CC1` (stereo unspecified) [Dicyclopropyl-methanone O-[2-hydroxy-3-(3-iodo-phenylamino)-propyl]-oxime], above 10 µM. The value for `CCCCc1ccc(NCC(O)CON=C(C2CC2)C2CC2)cc1` (stereo unspecified) [Dicyclopropyl-methanone O-[3-(4-butyl-phenylamino)-2-hydroxy-propyl]-oxime] was above 10 µM.

`OC(CNc1ccc(-c2ccccc2)cc1)CON=C(C1CC1)C1CC1` (stereo unspecified) [Dicyclopropyl-methanone O-[3-(biphenyl-4-ylamino)-2-hydroxy-propyl]-oxime]: the IC50 was above 10 µM. The value for `CCOC(=O)c1ccc(NCC(O)CON=C(C2CC2)C2CC2)cc1` (stereo unspecified) [4-(3-Dicyclopropylmethyleneaminooxy-2-hydroxy-propylamino)-benzoic acid ethyl ester] was above 10 µM.
